How the values were obtained:
Test in all cases: relative viability (nuclei count vs DMSO), 5 days (fraction); higher = more cells survive
[1] = test system: NCI-H838
Procedure, shortened: (§1)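 Lung cancer cell lines, seeded in 1536-well plates, were treated the following day by pin tool with a single drug or with five library-drug doses (not always all listed) in √10 steps on top of a fixed anchor-drug dose. Cells were fixed and nuclei stained in one step after 5 days, and nuclei were counted. Relative viability is the nuclei count for treated wells divided by that for vehicle wells, reported as medians of duplicate plates.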

[2] = test system: HOP-62
Procedure, shortened: as §1

[3] = test system: NCI-H596
Procedure, shortened: as §1

[4] = test system: NCI-H1650
Procedure, shortened: as §1

[5] = test system: LOU-NH91
Procedure, shortened: as §1

[6] = test system: NCI-H2087
Procedure, shortened: as §1

[7] = test system: HCC-44
Procedure, shortened: as §1

[8] = test system: ChaGo-K-1
Procedure, shortened: as §1

[9] = test system: HCC-78
Procedure, shortened: as §1

[10] = test system: A-427
Procedure, shortened: as §1

[11] = test system: NCI-H2023
Procedure, shortened: as §1

[12] = test system: NCI-H358
Procedure, shortened: as §1

[13] = test system: NCI-H1734
Procedure, shortened: as §1

[14] = test system: EKVX
Procedure, shortened: as §1

[15] = test system: NCI-H3122
Procedure, shortened: as §1

[16] = test system: NCI-H1395
Procedure, shortened: as §1

[17] = test system: SK-MES-1
Procedure, shortened: as §1

[18] = test system: COR-L23
Procedure, shortened: as §1

[19] = test system: EPLC-272H
Procedure, shortened: as §1

[20] = test system: NCI-H661
Procedure, shortened: as §1

[21] = test system: NCI-H1915
Procedure, shortened: as §1

[22] = test system: NCI-H650
Procedure, shortened: as §1

[23] = test system: HCC-366
Procedure, shortened: as §1

Compound: O=c1[nH]c2ccccc2n1C1CCN(CCCC(c2ccc(F)cc2)c2ccc(F)cc2)CC1 [Pimozide] + O=C(CCCCCCC(=O)Nc1ccccc1)NO [Vorinostat] (partner 1 µM)
- relative viability ([1]; first compound 0.08 µM): 0.745
- relative viability ([1]; first compound 0.253 µM): 0.716
- relative viability ([1]; first compound 0.8 µM): 0.663
- relative viability ([1]; first compound 2.53 µM): 0.702
- relative viability ([1]; first compound 8 µM): 0.705
- relative viability ([2]; first compound 0.08 µM): 0.704
- relative viability ([2]; first compound 0.253 µM): 0.642
- relative viability ([2]; first compound 2.53 µM): 0.494
- relative viability ([2]; first compound 8 µM): 0.416
- relative viability ([3]; first compound 0.08 µM): 0.702
- relative viability ([3]; first compound 0.253 µM): 0.598
- relative viability ([3]; first compound 0.8 µM): 0.467
- relative viability ([3]; first compound 2.53 µM): 0.583
- relative viability ([3]; first compound 8 µM): 0.549
- relative viability ([4]; first compound 0.08 µM): 0.449
- relative viability ([4]; first compound 0.253 µM): 0.571
- relative viability ([4]; first compound 0.8 µM): 0.687
- relative viability ([4]; first compound 2.53 µM): 0.591
- relative viability ([4]; first compound 8 µM): 0.546
- relative viability ([5]; first compound 0.08 µM): 0.741
- relative viability ([5]; first compound 0.253 µM): 0.883
- relative viability ([5]; first compound 0.8 µM): 0.852
- relative viability ([5]; first compound 2.53 µM): 0.98
- relative viability ([5]; first compound 8 µM): 0.872
- relative viability ([6]; first compound 0.08 µM): 0.802
- relative viability ([6]; first compound 0.253 µM): 0.597
- relative viability ([6]; first compound 2.53 µM): 0.615
- relative viability ([6]; first compound 8 µM): 0.774
- relative viability ([7]; first compound 0.08 µM): 1.12
- relative viability ([7]; first compound 0.253 µM): 1.12
- relative viability ([7]; first compound 0.8 µM): 0.923
- relative viability ([7]; first compound 2.53 µM): 1.12
- relative viability ([7]; first compound 8 µM): 0.975
- relative viability ([8]; first compound 0.08 µM): 0.726
- relative viability ([8]; first compound 0.253 µM): 0.668
- relative viability ([8]; first compound 0.8 µM): 0.794
- relative viability ([8]; first compound 2.53 µM): 0.841
- relative viability ([8]; first compound 8 µM): 0.758
- relative viability ([9]; first compound 0.08 µM): 0.371
- relative viability ([9]; first compound 0.8 µM): 0.369
- relative viability ([9]; first compound 2.53 µM): 0.453
- relative viability ([9]; first compound 8 µM): 0.447
- relative viability ([10]; first compound 0.08 µM): 0.893
- relative viability ([10]; first compound 0.253 µM): 0.875
- relative viability ([10]; first compound 0.8 µM): 0.775
- relative viability ([10]; first compound 2.53 µM): 0.854
- relative viability ([10]; first compound 8 µM): 0.815
- relative viability ([11]; first compound 0.08 µM): 0.583
- relative viability ([11]; first compound 0.253 µM): 0.747
- relative viability ([11]; first compound 0.8 µM): 0.353
- relative viability ([11]; first compound 2.53 µM): 0.547
- relative viability ([11]; first compound 8 µM): 0.484
- relative viability ([12]; first compound 0.08 µM): 0.697
- relative viability ([12]; first compound 0.253 µM): 0.685
- relative viability ([12]; first compound 0.8 µM): 0.639
- relative viability ([12]; first compound 2.53 µM): 0.906
- relative viability ([12]; first compound 8 µM): 0.679
- relative viability ([13]; first compound 0.08 µM): 0.841
- relative viability ([13]; first compound 0.253 µM): 0.739
- relative viability ([13]; first compound 0.8 µM): 0.569
- relative viability ([13]; first compound 2.53 µM): 0.763
- relative viability ([13]; first compound 8 µM): 0.847
- relative viability ([14]; first compound 0.253 µM): 0.712
- relative viability ([14]; first compound 0.8 µM): 0.601
- relative viability ([14]; first compound 2.53 µM): 0.812
- relative viability ([14]; first compound 8 µM): 0.641
- relative viability ([15]; first compound 0.08 µM): 0.924
- relative viability ([15]; first compound 0.253 µM): 0.951
- relative viability ([15]; first compound 0.8 µM): 0.81
- relative viability ([15]; first compound 2.53 µM): 0.724
- relative viability ([15]; first compound 8 µM): 0.847
- relative viability ([16]; first compound 0.08 µM): 0.696
- relative viability ([16]; first compound 0.253 µM): 0.607
- relative viability ([16]; first compound 0.8 µM): 0.629
- relative viability ([16]; first compound 2.53 µM): 0.711
- relative viability ([16]; first compound 8 µM): 0.628
- relative viability ([17]; first compound 0.08 µM): 1.13
- relative viability ([17]; first compound 0.253 µM): 1.02
- relative viability ([17]; first compound 0.8 µM): 0.991
- relative viability ([17]; first compound 2.53 µM): 1.06
- relative viability ([17]; first compound 8 µM): 0.996
- relative viability ([18]; first compound 0.08 µM): 0.459
- relative viability ([18]; first compound 0.253 µM): 0.414
- relative viability ([18]; first compound 0.8 µM): 0.343
- relative viability ([18]; first compound 2.53 µM): 0.432
- relative viability ([18]; first compound 8 µM): 0.495
- relative viability ([19]; first compound 0.08 µM): 0.402
- relative viability ([19]; first compound 0.253 µM): 0.453
- relative viability ([19]; first compound 0.8 µM): 0.417
- relative viability ([19]; first compound 2.53 µM): 0.418
- relative viability ([19]; first compound 8 µM): 0.307
- relative viability ([20]; first compound 0.08 µM): 0.667
- relative viability ([20]; first compound 0.253 µM): 0.741
- relative viability ([20]; first compound 0.8 µM): 0.723
- relative viability ([20]; first compound 2.53 µM): 0.699
- relative viability ([20]; first compound 8 µM): 0.64
- relative viability ([21]; first compound 0.08 µM): 0.525
- relative viability ([21]; first compound 0.253 µM): 0.48
- relative viability ([21]; first compound 2.53 µM): 0.432
- relative viability ([21]; first compound 8 µM): 0.487
- relative viability ([22]; first compound 0.08 µM): 0.455
- relative viability ([22]; first compound 0.253 µM): 0.386
- relative viability ([22]; first compound 0.8 µM): 0.399
- relative viability ([22]; first compound 2.53 µM): 0.454
- relative viability ([22]; first compound 8 µM): 0.452
- relative viability ([23]; first compound 0.08 µM): 0.457
- relative viability ([23]; first compound 0.253 µM): 0.334
- relative viability ([23]; first compound 0.8 µM): 0.142
- relative viability ([23]; first compound 2.53 µM): 0.29
- relative viability ([23]; first compound 8 µM): 0.309

Reference: the supplement of paper PMC10307832
